Data set [1] relates to INS-1 cells. The data set can be described thus: INS-1 cell toxicity (CCK-8 cell viability). Particulars: for Cell viability (%): 24 hours, INS-1 cells, CCK-8; for toxicity against INS-1 cells: summary of Tables 1 and 2, up to 5 μg/mL or 5 μM. The protocol:
Cell line INS-1 (Biohermes, Shanghai, China) is a […] insulinoma species and has insulin secretion ability. INS-1 cells were cultured in RPMI1640 (Cellgro, Manassas, Va., USA) medium supplemented with 10% fetal bovine serum (FBS), 100 units/mL penicillin G, 100 μg/mL streptomycin, 10 mM HEPES, 2 mM L-glutamine, 1 mM sodium pyruvate and 0.05 mM 2-mercapto ethanol under a condition of a temperature of 37° C., 90% air, and 10% CO2. Among the above-mentioned components, reagents not mentioned by the manufacturer were purchased from Gibco BRL, Life Technologies. The cultured INS-1 cells were inoculated in each well of a 96-well plate in the number of 1×10^4 in a medium of 100 μL and cultured for 24 hours to stabilize the cells. Next, the ginger extract, fraction thereof, and single compounds were added to a specific concentration, followed by culturing for 24 hours. Next, 10 μL of a CCK-8 reagent (Dojindo Laboratories, Japan) was added to each well, followed by culturing at a temperature of 37° C. After 1 hour, cell viability was measured by measuring absorbance at a wavelength of 450 nm on a BIO-TEK (Winooski, Vt., USA) microplate reader. The specific concentrations of the ginger extract and a fraction thereof were set to 1 μg/m L, 2.5 μg/mL, and 5 μg/mL, and the specific concentrations of the single compound were set to 1 μM, 2.5 μM, and 5 μM. Cell viability in Tables 1 and 2 was calculated as follows. Cell viability (%)=A/B×100 A: absorbance of sample to which a reagent is […]

Data set [2] deals with INS-1 cells. Put plainly: Glucose stimulated insulin secretion (GSIS) of INS-1 cell. The class given is cell-based, rat. Particulars: for Stimulation index (SI): insulin secreted at 16.7 mM glucose divided by that at 3.3 mM glucose; for insulin secretion of INS-1 cells: summary in words of Tables 3 and 4. The protocol: Cell line INS-1 (Biohermes, Shanghai, China) is a […] insulinoma species and has insulin secretion ability. INS-1 cells were cultured in RPMI1640 (Cellgro, Manassas, Va., USA) medium supplemented with 10% fetal bovine serum (FBS), 100 units/mL penicillin G, 100 μg/mL streptomycin, 10 mM HEPES, 2 mM L-glutamine, 1 mM sodium pyruvate and 0.05 mM 2-mercapto ethanol under a condition of a temperature of 37° C., 90% air, and 10% CO2. Among the above-mentioned components, reagents not mentioned by the manufacturer were purchased from Gibco BRL, Life Technologies. 5×10^5 cultured INS-1 cells were inoculated in each well of the 12-well plate in the same medium of 2 mL and cultured for 24 hours under the same condition as described in Section (1) INS-1 cell culture to stabilize the cells. Then, 114 mM sodium chloride (NaCl), 4.4 mM potassium chloride (KCl), 1 mM magnesium sulfate (MgSO4), 1.28 mM calcium chloride (CaCl2)), 29.5 mM sodium hydrogen carbonate (NaHCO3), 10 mM HEPES; Gibco BRL Life Technologies), and 0.1% bovine serum albumin (BSA) were mixed, and the cells were washed twice with 2 mL of Krebs-Ringer buffer with a hydrogen ion concentration of pH 7.4. Thereafter, 2 mL of Krebs-Ringer buffer was added to the washed cells and incubated for 1 hour. Then, the ginger extract, each fraction, and each compound were incubated for 30 minutes in 1.8 mL of Krebs-Ringer buffer at a specific concentration. The specific concentrations of the ginger extract and a fraction thereof were set to 1 μg/m L, 2.5 μg/mL, and 5 μg/mL, and the specific concentrations of the single compound were set to 1 μM, 2.5 μM, and 5 μM. 0.2 mL of Krebs-Ringer buffers containing 33 mM and 167 mM glucose were each added to the wells and incubated for 1 hour. Thereafter, after centrifugation at 12,000 revolutions per minute (rpm) for 10 minutes at a temperature of 4° C., the supernatant was taken, and the amount of insulin was measured with a Rat insulin RIA kit (Gentaur Molecular Products, Belgium). The stimulation index (SI) is a value obtained by dividing a value measured at a high glucose concentration, that is, the amount of insulin secreted by stimulation of a 16.7 mM glucose concentration by a value measured at a low glucose concentration, that is, the amount of insulin secreted by stimulation of a 3.3 mM glucose concentration. As a positive control, gliclazide was used at concentrations of 2.5 μM, 5.0 μM, 10 μM, and 20 μM.

In a further data set the test system is ICR mice. Put plainly: Oral glucose tolerance test (OGTT). The data set is classed as in vivo, mouse. Particulars: 100 mg/kg oral 1 hour before glucose 2 g/Kg, caudal vein blood at 0-120 minutes, vs control and unprocessed/6-gingerol group. The protocol:
ICR mice were used for OGTT experiments. ICR mice were fasted for 12 hours before the experiment, blood was collected from the caudal vein of mice that had been fasted for 12 hours, and the fasting blood glucose level was measured as the initial blood glucose level. Thereafter, experiments were conducted with a group administered with glucose (2 g/Kg) (control), a group administered with glucose and a raw ginger extract (100 mg/kg, not processed), and a group administered with a microwave-processed ginger product (100 mg/kg, processed). After oral administration for each concentration, glucose was orally administered 1 hour later, and measurement was performed by using a blood glucose meter from the caudal vein at 0, 15, 30, 60, and 120 minutes. FIG. 3 is a graph of results of an oral glucose tolerance test of a ginger extract and a microwave-processed ginger product.
Next, to test the efficacy of a single component of ginger, blood was collected from the caudal vein of mice that had been fasted for 12 hours, and the fasting blood glucose level was measured as the initial blood glucose level. Thereafter, experiments were conducted with a group administered with glucose (2 g/Kg) (control), a group administered with glucose and 6-gingerol (100 mg/kg), and a group administered with glucose and 6-shogaol (100 mg/kg). […]

The conditions of data set [3]: through induction of cell defense mechanisms; cited from earlier work.

“Also recorded” adds a separate entry of the source.

As to `CCCCC/C=C/C(=O)CCc1ccc(O)c(OC)c1` [[6]-shogaol], the “Cell viability (%)” value in the data set on INS-1 cells [1] (1 μM) was found to be 101.1 ± 0.4%; in the data set with INS-1 cells [1] (2.5 μM), 101.8 ± 0.7%; in the data set on INS-1 cells [1] (5 μM), 101.2 ± 0.2%. Also, in the data set on INS-1 cells [1], the “toxicity against INS-1 cells” value is reported as “not to exhibit toxicity”. The “Stimulation index (SI)” value in the data set on INS-1 cells [2] (1 μM) is given as 3.0 ± .0; in the data set on INS-1 cells [2] (2.5 μM), 3.5 ± 0.1; in the data set with INS-1 cells [2] (5 μM), 4.8 ± 0.0. The “insulin secretion of INS-1 cells” value in the data set on INS-1 cells [2] is given as “secreted insulin concentration-dependently; also recorded: promote insulin secretion in INS-1 cells, as compared with other components”. Moreover, the “increase in blood glucose level” value in the data set with ICR mice is “significantly reduced”.
For `CCCCCCC[C@H](O)CC(=O)CCc1ccc(O)c(OC)c1` [[8]-gingerol], the “Stimulation index (SI)” value in the data set with INS-1 cells [2] (1 μM) worked out at 1.1 ± 0.0; in the data set with INS-1 cells [2] (2.5 μM) it was 1.5 ± 0.0; with INS-1 cells [2] (5 μM), 2.1 ± 0.0. For the same molecule, the “insulin secretion of INS-1 cells” value in the data set with INS-1 cells [2] is “secreted insulin concentration-dependently”.
Consider `CCCCC[C@H](O)CC(=O)CCc1ccc(O)c(OC)c1` [[6]-gingerol], for which the “Cell viability (%)” value is recorded as 98.1 ± 2.7% in the data set on INS-1 cells [1] (1 μM), 98.7 ± 2.3% in the data set with INS-1 cells [1] (2.5 μM) and 98.2 ± 3.5% in the data set on INS-1 cells [1] (5 μM). Also, the “toxicity against INS-1 cells” value with INS-1 cells [1] was “not to exhibit toxicity”. Further, the “Stimulation index (SI)” value came to 2.4 ± 0.0 in the data set on INS-1 cells [2] (1 μM), 2.2 ± 0.1 in the data set with INS-1 cells [2] (2.5 μM) and 2.3 ± 0.1 with INS-1 cells [2] (5 μM). Besides, the “insulin secretion of INS-1 cells” value in the data set with INS-1 cells [2] was “secreted insulin concentration-dependently”.
On to `CCCCCCCCC[C@H](O)CC(=O)CCc1ccc(O)c(OC)c1` [[10]-gingerol], for which the “Cell viability (%)” value in the data set with INS-1 cells [1] (1 μM) came to 99.3 ± 1.6%; in the data set with INS-1 cells [1] (2.5 μM) it was 100.6 ± 3.3%; in the data set with INS-1 cells [1] (5 μM), 100.7 ± 3.5%. Further, the “toxicity against INS-1 cells” value in the data set on INS-1 cells [1] was “not to exhibit toxicity”. In addition, the “Stimulation index (SI)” value was found to be 1.7 ± 0.2 in the data set with INS-1 cells [2] (1 μM), 1.7 ± 0.1 with INS-1 cells [2] (2.5 μM) and 1.5 ± 0.1 in the data set with INS-1 cells [2] (5 μM). Also, the “insulin secretion of INS-1 cells” value in the data set on INS-1 cells [2] was “secreted insulin concentration-dependently”.
`Cc1ccc(S(=O)(=O)NC(=O)NN2CC3CCCC3C2)cc1` (stereo not shown) [Glyclazide, gliclazide, reference compound]: the “Cell viability (%)” value with INS-1 cells [1] (1 μM) worked out at 99.7 ± 0.2%; in the data set with INS-1 cells [1] (2.5 μM), 96.3 ± 0.9%; in the data set on INS-1 cells [1] (5 μM) it was 91.1 ± 1.4%. For the same molecule, the “Stimulation index (SI)” value in the data set on INS-1 cells [2] (1 μM) worked out at 1.3 ± 0.0; in the data set with INS-1 cells [2] (2.5 μM), 1.9 ± 0.1; in the data set with INS-1 cells [2] (5 μM), 3.0 ± 0.1.
For the molecule `CCCCCCCCC/C=C/C(=O)CCc1ccc(O)c(OC)c1` [[10]-shogaol], the “Cell viability (%)” value was found to be 101.9 ± 2.2% in the data set on INS-1 cells [1] (1 μM), 99.8 ± 3.9% in the data set with INS-1 cells [1] (2.5 μM) and 99.6 ± 3.3% with INS-1 cells [1] (5 μM). Moreover, in the data set on INS-1 cells [1], the “toxicity against INS-1 cells” value is listed as “not to exhibit toxicity”. The “Stimulation index (SI)” value with INS-1 cells [2] (1 μM) is reported as 1.9 ± 0.0; in the data set with INS-1 cells [2] (2.5 μM), 1.4 ± 0.0; in the data set with INS-1 cells [2] (5 μM) it was 1.4 ± 0.1. In the data set on INS-1 cells [2], the “insulin secretion of INS-1 cells” value is listed as “secreted insulin concentration-dependently”.
Turning to `CCCCCCC/C=C/C(=O)CCc1ccc(O)c(OC)c1` [[8]-shogaol], the figures for the “Cell viability (%)” value in the data set with INS-1 cells [1] (1 μM), in the data set with INS-1 cells [1] (2.5 μM) and in the data set with INS-1 cells [1] (5 μM) were 94.0 ± 2.6%, 96.3 ± 1.9% and 92.4 ± 1.7%, respectively. For the same molecule, the “toxicity against INS-1 cells” value in the data set with INS-1 cells [1] is “not to exhibit toxicity”. In addition, the entries for the “Stimulation index (SI)” value in the data set with INS-1 cells [2] (1 μM), in the data set with INS-1 cells [2] (2.5 μM) and in the data set with INS-1 cells [2] (5 μM) were 1.3 ± 0.1, 1.5 ± 0.1 and 1.8 ± 0.1, respectively. In the data set with INS-1 cells [2], the “insulin secretion of INS-1 cells” value is on record as “secreted insulin concentration-dependently”.
For the molecule shogaol, in data set [3], the “anticancer activity compared with [6]-gingerol” value is “more than 10 times”.
